# Measurements from US5773458A, “1-azabicycloheptane derivatives” (American Home Products Corporation, priority 1997, dated 1998).
# Molecular target: T1, M1 acetylcholine receptors (Homo sapiens, UniProt P11229)
# T1 construct: expressed in transfected cells; host or cells: Chinese Hamster Ovary (CHO) cells, CMV vector
# T1 sequence (P11229 1-460): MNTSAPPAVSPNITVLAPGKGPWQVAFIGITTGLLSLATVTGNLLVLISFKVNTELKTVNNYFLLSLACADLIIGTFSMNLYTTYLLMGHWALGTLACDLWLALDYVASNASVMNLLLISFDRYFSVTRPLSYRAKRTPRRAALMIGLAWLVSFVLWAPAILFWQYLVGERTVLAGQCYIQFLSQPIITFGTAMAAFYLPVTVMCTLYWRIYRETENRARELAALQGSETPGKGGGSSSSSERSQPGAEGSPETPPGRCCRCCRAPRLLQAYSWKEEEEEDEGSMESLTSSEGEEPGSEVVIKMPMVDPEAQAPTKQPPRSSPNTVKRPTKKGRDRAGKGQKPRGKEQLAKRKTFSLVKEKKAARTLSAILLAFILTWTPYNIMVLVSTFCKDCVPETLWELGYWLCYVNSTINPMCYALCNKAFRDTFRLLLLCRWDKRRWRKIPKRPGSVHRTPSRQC
# Assay: Phosphoinositide (PI) hydrolysis in transfected CHO cells
# Assay type: cell-based
# Conditions: statement in words, no figures given
# Protocol: The tubes are incubated for one hour at 37° C. The reaction is quenched with chloroform and the phosphatidyl inositols are extracted with methanol and chloroform. Phase separation is assured with the addition of methanol and water followed by centrifugation. The tritiated inositol phosphates are recovered on BioRad AG 1-X8 anion exchange resin in the formate cycle. After washing the resin with water and myo-inositol, the inositol phosphates are eluted with ammonium formate/formic acid, collected and subjected to liquid scintillation spectroscopy.
smiles,measurement,value
"CNC(=O)O[C@@H]1C[N+]2([O-])CC[C@@H]1C2 (relative stereo) [Example 1, (exo)--Methylcarbamic acid 1-oxy-1-aza-bicyclo[2.2.1]hept-3-yl ester]",functional m1 muscarinic agonism,enhanced muscarinic agonism
